# Test results as given in patent US20090155209A1, “NOVEL MACROCYCLIC INHIBITORS OF HEPATITIS C VIRUS REPLICATION” (priority 2007, published 2009).
# Biological target: NS3-NS4 (Hepatitis C virus genotype 1a, UniProt P27958)
# Experiment: NS3-NS4 activity, IC50 (Example 37, Table 8)
# Assay type: biochemical
# Chain of NS3-NS4 (P27958 1027-1657): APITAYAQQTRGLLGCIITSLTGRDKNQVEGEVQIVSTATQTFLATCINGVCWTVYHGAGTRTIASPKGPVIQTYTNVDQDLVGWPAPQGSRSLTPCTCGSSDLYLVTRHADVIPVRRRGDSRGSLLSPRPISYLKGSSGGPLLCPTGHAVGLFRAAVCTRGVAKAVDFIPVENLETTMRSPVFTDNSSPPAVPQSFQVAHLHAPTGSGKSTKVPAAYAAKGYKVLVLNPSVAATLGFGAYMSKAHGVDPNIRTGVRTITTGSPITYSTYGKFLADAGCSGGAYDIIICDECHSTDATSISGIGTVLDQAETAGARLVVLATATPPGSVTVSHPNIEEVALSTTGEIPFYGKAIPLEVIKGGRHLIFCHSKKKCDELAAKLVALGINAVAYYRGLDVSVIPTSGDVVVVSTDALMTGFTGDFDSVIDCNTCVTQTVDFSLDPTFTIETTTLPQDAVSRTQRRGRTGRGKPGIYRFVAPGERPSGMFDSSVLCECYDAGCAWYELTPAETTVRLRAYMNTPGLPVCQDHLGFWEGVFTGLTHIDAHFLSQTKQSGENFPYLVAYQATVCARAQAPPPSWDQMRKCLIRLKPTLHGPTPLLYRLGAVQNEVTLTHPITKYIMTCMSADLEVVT
# Chain of NS3-NS4 (P27958 1658-1711): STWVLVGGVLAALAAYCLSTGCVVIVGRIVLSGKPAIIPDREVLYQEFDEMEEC
row,IC50 [nM],Structure (SMILES)
1,< 100,Cc1ccccc1CS(=O)(=O)NC(=O)[C@@]12C[C@H]1/C=C\CCCCC[C@H](NC(=O)OC(C)(C)C)C(=O)N1C[C@H](OC(=O)N3Cc4cccc(F)c4C3)C[C@H]1C(=O)N2 [Compound 513]
2,< 100,COc1cccc(CS(=O)(=O)NC(=O)[C@@]23C[C@H]2/C=C\CCCCC[C@H](NC(=O)OC(C)(C)C)C(=O)N2C[C@H](OC(=O)N4Cc5cccc(F)c5C4)C[C@H]2C(=O)N3)c1 [Compound 516]
3,< 100,CC(C)(C)OC(=O)N[C@H]1CCCCC/C=C\[C@@H]2C[C@@]2(C(=O)NS(=O)(=O)c2ccc(Cl)nc2)NC(=O)[C@@H]2C[C@@H](OC(=O)N3Cc4cccc(F)c4C3)CN2C1=O [Compound 530]
4,< 100,CC(C)(C)OC(=O)N[C@H]1CCCCC/C=C\[C@@H]2C[C@@]2(C(=O)NS(=O)(=O)c2ccc(Cl)nc2Cl)NC(=O)[C@@H]2C[C@@H](OC(=O)N3Cc4cccc(F)c4C3)CN2C1=O [Compound 531]
5,< 100,COc1ccc(S(=O)(=O)NC(=O)[C@@]23C[C@H]2/C=C\CCCCC[C@H](NC(=O)OC(C)(C)C)C(=O)N2C[C@H](OC(=O)N4Cc5cccc(F)c5C4)C[C@H]2C(=O)N3)cn1 [Compound 532]
6,< 100,Cc1cc(S(=O)(=O)NC(=O)[C@@]23C[C@H]2/C=C\CCCCC[C@H](NC(=O)OC(C)(C)C)C(=O)N2C[C@H](OC(=O)N4Cc5cccc(F)c5C4)C[C@H]2C(=O)N3)sc1C [Compound 540]
7,< 100,CC(C)(C)OC(=O)N[C@H]1CCCCCCC[C@@H]2C[C@@]2(C(=O)NS(=O)(=O)Cc2ccccc2F)NC(=O)[C@@H]2C[C@@H](OC(=O)N3Cc4cccc(F)c4C3)CN2C1=O [Compound 607]
8,< 100,CC(C)(C)OC(=O)N[C@H]1CCCCCCC[C@@H]2C[C@@]2(C(=O)NS(=O)(=O)Cc2cccc(F)c2)NC(=O)[C@@H]2C[C@@H](OC(=O)N3Cc4cccc(F)c4C3)CN2C1=O [Compound 608]
9,< 100,CC(C)(C)OC(=O)N[C@H]1CCCCCCC[C@@H]2C[C@@]2(C(=O)NS(=O)(=O)Cc2ccc(F)cc2)NC(=O)[C@@H]2C[C@@H](OC(=O)N3Cc4cccc(F)c4C3)CN2C1=O [Compound 609]
10,< 100,CC(C)(C)OC(=O)N[C@H]1CCCCCCC[C@@H]2C[C@@]2(C(=O)NS(=O)(=O)Cc2cccc(Cl)c2)NC(=O)[C@@H]2C[C@@H](OC(=O)N3Cc4cccc(F)c4C3)CN2C1=O [Compound 611]
11,< 100,CC(C)(C)OC(=O)N[C@H]1CCCCCCC[C@@H]2C[C@@]2(C(=O)NS(=O)(=O)Cc2ccc(Cl)cc2)NC(=O)[C@@H]2C[C@@H](OC(=O)N3Cc4cccc(F)c4C3)CN2C1=O [Compound 612]
12,< 100,Cc1cccc(CS(=O)(=O)NC(=O)[C@@]23C[C@H]2CCCCCCC[C@H](NC(=O)OC(C)(C)C)C(=O)N2C[C@H](OC(=O)N4Cc5cccc(F)c5C4)C[C@H]2C(=O)N3)c1 [Compound 614]
13,< 100,Cc1ccc(CS(=O)(=O)NC(=O)[C@@]23C[C@H]2CCCCCCC[C@H](NC(=O)OC(C)(C)C)C(=O)N2C[C@H](OC(=O)N4Cc5cccc(F)c5C4)C[C@H]2C(=O)N3)cc1 [Compound 615]
14,< 100,COc1cccc(CS(=O)(=O)NC(=O)[C@@]23C[C@H]2CCCCCCC[C@H](NC(=O)OC(C)(C)C)C(=O)N2C[C@H](OC(=O)N4Cc5cccc(F)c5C4)C[C@H]2C(=O)N3)c1 [Compound 616]
15,< 100,CC(C)(C)OC(=O)N[C@H]1CCCCCCC[C@@H]2C[C@@]2(C(=O)NS(=O)(=O)Cc2ccccc2C(F)(F)F)NC(=O)[C@@H]2C[C@@H](OC(=O)N3Cc4cccc(F)c4C3)CN2C1=O [Compound 617]
16,< 100,CC(C)(C)OC(=O)N[C@H]1CCCCCCC[C@@H]2C[C@@]2(C(=O)NS(=O)(=O)Cc2cccc(C(F)(F)F)c2)NC(=O)[C@@H]2C[C@@H](OC(=O)N3Cc4cccc(F)c4C3)CN2C1=O [Compound 618]
17,< 100,CC(C)(C)OC(=O)N[C@H]1CCCCCCC[C@@H]2C[C@@]2(C(=O)NS(=O)(=O)Cc2ccc(C(F)(F)F)cc2)NC(=O)[C@@H]2C[C@@H](OC(=O)N3Cc4cccc(F)c4C3)CN2C1=O [Compound 619]
18,< 100,CC(C)(C)OC(=O)N[C@H]1CCCCCCC[C@@H]2C[C@@]2(C(=O)NS(=O)(=O)Cc2cc(F)ccc2F)NC(=O)[C@@H]2C[C@@H](OC(=O)N3Cc4cccc(F)c4C3)CN2C1=O [Compound 620]
19,< 100,CC(C)(C)OC(=O)N[C@H]1CCCCCCC[C@@H]2C[C@@]2(C(=O)NS(=O)(=O)Cc2c(F)cccc2F)NC(=O)[C@@H]2C[C@@H](OC(=O)N3Cc4cccc(F)c4C3)CN2C1=O [Compound 621]
20,< 100,CC(C)(C)OC(=O)N[C@H]1CCCCCCC[C@@H]2C[C@@]2(C(=O)NS(=O)(=O)Cc2ccc(F)c(F)c2)NC(=O)[C@@H]2C[C@@H](OC(=O)N3Cc4cccc(F)c4C3)CN2C1=O [Compound 622]
21,< 100,CC(C)(C)OC(=O)N[C@H]1CCCCCCC[C@@H]2C[C@@]2(C(=O)NS(=O)(=O)Cc2cc(F)cc(F)c2)NC(=O)[C@@H]2C[C@@H](OC(=O)N3Cc4cccc(F)c4C3)CN2C1=O [Compound 623]

row,IC50 [nM],Structure (SMILES)
1,< 100,CC(C)(C)OC(=O)N[C@H]1CCCCCCC[C@@H]2C[C@@]2(C(=O)NS(=O)(=O)Cc2ccc(Cl)cc2Cl)NC(=O)[C@@H]2C[C@@H](OC(=O)N3Cc4cccc(F)c4C3)CN2C1=O [Compound 624]
2,< 100,CC(C)(C)OC(=O)N[C@H]1CCCCCCC[C@@H]2C[C@@]2(C(=O)NS(=O)(=O)Cc2cc(Cl)ccc2Cl)NC(=O)[C@@H]2C[C@@H](OC(=O)N3Cc4cccc(F)c4C3)CN2C1=O [Compound 625]
3,< 100,CC(C)(C)OC(=O)N[C@H]1CCCCCCC[C@@H]2C[C@@]2(C(=O)NS(=O)(=O)Cc2c(Cl)cccc2Cl)NC(=O)[C@@H]2C[C@@H](OC(=O)N3Cc4cccc(F)c4C3)CN2C1=O [Compound 626]
4,< 100,CC(C)(C)OC(=O)N[C@H]1CCCCCCC[C@@H]2C[C@@]2(C(=O)NS(=O)(=O)Cc2ccc(Cl)c(Cl)c2)NC(=O)[C@@H]2C[C@@H](OC(=O)N3Cc4cccc(F)c4C3)CN2C1=O [Compound 627]
5,< 100,Cc1ccc(CS(=O)(=O)NC(=O)[C@@]23C[C@H]2CCCCCCC[C@H](NC(=O)OC(C)(C)C)C(=O)N2C[C@H](OC(=O)N4Cc5cccc(F)c5C4)C[C@H]2C(=O)N3)c(C)c1 [Compound 628]
6,< 100,Cc1ccc(CS(=O)(=O)NC(=O)[C@@]23C[C@H]2CCCCCCC[C@H](NC(=O)OC(C)(C)C)C(=O)N2C[C@H](OC(=O)N4Cc5cccc(F)c5C4)C[C@H]2C(=O)N3)cc1C [Compound 630]
7,< 100,COc1cccc(CS(=O)(=O)NC(=O)[C@@]23C[C@H]2CCCCCCC[C@H](NC(=O)OC(C)(C)C)C(=O)N2C[C@H](OC(=O)N4Cc5cccc(F)c5C4)C[C@H]2C(=O)N3)c1OC [Compound 631]
8,< 100,CC(C)(C)OC(=O)N[C@H]1CCCCCCC[C@@H]2C[C@@]2(C(=O)NS(=O)(=O)Cc2ccc(C(F)(F)F)cc2C(F)(F)F)NC(=O)[C@@H]2C[C@@H](OC(=O)N3Cc4cccc(F)c4C3)CN2C1=O [Compound 633]
9,< 100,CC(C)(C)OC(=O)N[C@H]1CCCCCCC[C@@H]2C[C@@]2(C(=O)NS(=O)(=O)Cc2cc(C(F)(F)F)cc(C(F)(F)F)c2)NC(=O)[C@@H]2C[C@@H](OC(=O)N3Cc4cccc(F)c4C3)CN2C1=O [Compound 634]
10,< 100,CC(C)(C)OC(=O)N[C@H]1CCCCCCC[C@@H]2C[C@@]2(C(=O)NS(=O)(=O)c2cccnc2Cl)NC(=O)[C@@H]2C[C@@H](OC(=O)N3Cc4cccc(F)c4C3)CN2C1=O [Compound 635]
11,< 100,CC(C)(C)OC(=O)N[C@H]1CCCCCCC[C@@H]2C[C@@]2(C(=O)NS(=O)(=O)c2ccc(Cl)nc2)NC(=O)[C@@H]2C[C@@H](OC(=O)N3Cc4cccc(F)c4C3)CN2C1=O [Compound 636]
12,< 100,Cc1cc(S(=O)(=O)NC(=O)[C@@]23C[C@H]2CCCCCCC[C@H](NC(=O)OC(C)(C)C)C(=O)N2C[C@H](OC(=O)N4Cc5cccc(F)c5C4)C[C@H]2C(=O)N3)oc1C [Compound 640]
13,< 100,CC(C)(C)OC(=O)N[C@H]1CCCCCCC[C@@H]2C[C@@]2(C(=O)NS(=O)(=O)c2ccc(Cl)s2)NC(=O)[C@@H]2C[C@@H](OC(=O)N3Cc4cccc(F)c4C3)CN2C1=O [Compound 641]
14,< 100,CC(C)(C)OC(=O)N[C@H]1CCCCCCC[C@@H]2C[C@@]2(C(=O)NS(=O)(=O)c2cc(Cl)cs2)NC(=O)[C@@H]2C[C@@H](OC(=O)N3Cc4cccc(F)c4C3)CN2C1=O [Compound 642]
15,< 100,CC(C)(C)OC(=O)N[C@H]1CCCCCCC[C@@H]2C[C@@]2(C(=O)NS(=O)(=O)c2cc(Cl)c(Cl)s2)NC(=O)[C@@H]2C[C@@H](OC(=O)N3Cc4cccc(F)c4C3)CN2C1=O [Compound 643]
16,< 100,Cc1ccc(S(=O)(=O)NC(=O)[C@@]23C[C@H]2CCCCCCC[C@H](NC(=O)OC(C)(C)C)C(=O)N2C[C@H](OC(=O)N4Cc5cccc(F)c5C4)C[C@H]2C(=O)N3)s1 [Compound 644]
17,< 100,Cc1cc(S(=O)(=O)NC(=O)[C@@]23C[C@H]2CCCCCCC[C@H](NC(=O)OC(C)(C)C)C(=O)N2C[C@H](OC(=O)N4Cc5cccc(F)c5C4)C[C@H]2C(=O)N3)sc1C [Compound 646]
18,< 100,COc1csc(S(=O)(=O)NC(=O)[C@@]23C[C@H]2CCCCCCC[C@H](NOC(=O)C(C)(C)C)C(=O)N2C[C@H](OC(=O)N4Cc5cccc(F)c5C4)C[C@H]2C(=O)N3)c1 [Compound 647]
19,< 100,Cc1ccccc1ONC(=O)[C@@]12C[C@H]1/C=C\CCCCC[C@H](NC(=O)OC(C)(C)C)C(=O)N1C[C@H](OC(=O)N3Cc4cccc(F)c4C3)C[C@H]1C(=O)N2 [Compound 701]
20,< 100,CC(C)(C)OC(=O)N[C@H]1CCCCC/C=C\[C@@H]2C[C@@]2(C(=O)NOc2ccc(F)cc2)NC(=O)[C@@H]2C[C@@H](OC(=O)N3Cc4cccc(F)c4C3)CN2C1=O [Compound 705]
21,< 100,CC(C)(C)OC(=O)N[C@H]1CCCCC/C=C\[C@@H]2C[C@@]2(C(=O)NOc2cccc(Cl)c2)NC(=O)[C@@H]2C[C@@H](OC(=O)N3Cc4cccc(F)c4C3)CN2C1=O [Compound 706]

row,Structure (SMILES),IC50 [nM]
1,CC(C)(C)OC(=O)N[C@H]1CCCCC/C=C\[C@@H]2C[C@@]2(C(=O)NS(=O)(=O)c2ccc(Cl)s2)NC(=O)[C@@H]2C[C@@H](OC(=O)N3Cc4cccc(F)c4C3)CN2C1=O [Compound 535],< 100
2,CC(C)(C)ONC(=O)[C@@]12C[C@H]1/C=C\CCCCC[C@H](NC(=O)OC(C)(C)C)C(=O)N1C[C@H](OC(=O)N3Cc4cccc(F)c4C3)C[C@H]1C(=O)N2 [Compound 716],< 100
